Legend:
in vivo = conditions: rat, po
cIAP-2 = cIAP-2 (Homo sapiens, UniProt Q13489); test: FP-based competitive binding assay for cIAP-2; conditions: relative to compound 2
XIAP BIR3 = XIAP BIR3 (Homo sapiens, UniProt P98170); test: Competitive fluorescence polarization-based XIAP binding assay; conditions: relative to compound 2
Aqueous solubility = assay type: physicochemical
[1] = test system: MDA-MB-231 cancer cell line; conditions: within 24-hour treatment

cIAP-2, sequence (Q13489 whole entry): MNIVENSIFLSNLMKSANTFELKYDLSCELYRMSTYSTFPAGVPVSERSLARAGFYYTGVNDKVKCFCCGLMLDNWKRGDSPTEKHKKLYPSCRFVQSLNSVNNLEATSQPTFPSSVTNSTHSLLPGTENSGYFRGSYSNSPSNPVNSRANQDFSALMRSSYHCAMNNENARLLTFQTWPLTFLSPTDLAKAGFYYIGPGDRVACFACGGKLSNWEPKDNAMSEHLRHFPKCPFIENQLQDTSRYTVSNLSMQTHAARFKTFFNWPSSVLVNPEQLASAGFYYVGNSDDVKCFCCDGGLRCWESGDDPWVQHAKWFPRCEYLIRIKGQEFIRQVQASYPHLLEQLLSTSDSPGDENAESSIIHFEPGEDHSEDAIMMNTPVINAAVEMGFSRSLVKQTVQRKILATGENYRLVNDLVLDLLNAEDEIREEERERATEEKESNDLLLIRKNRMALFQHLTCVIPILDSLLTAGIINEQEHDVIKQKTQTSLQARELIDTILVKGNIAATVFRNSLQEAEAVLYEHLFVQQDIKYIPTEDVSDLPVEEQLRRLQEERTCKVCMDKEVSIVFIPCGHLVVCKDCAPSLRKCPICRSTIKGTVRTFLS
XIAP BIR3, sequence (P98170 241-356 limits assumed): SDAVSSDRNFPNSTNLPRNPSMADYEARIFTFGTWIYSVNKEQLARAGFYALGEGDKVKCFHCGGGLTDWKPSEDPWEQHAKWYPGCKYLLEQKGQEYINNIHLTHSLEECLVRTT

CN[C@@H](C)C(=O)N[C@H]1CCCC[C@H]2CC[C@@H](C(=O)NC(c3ccccc3)c3ccccc3)N2C1=O [Compound 1]
AUC(0-inf) (in vivo; 25 mg/kg): 482 ± 92 ng·h/mL

CN[C@@H](C)C(=O)N[C@H]1CN(C)CC[C@H]2CC[C@@H](C(=O)NC(c3ccccc3)c3ccccc3)N2C1=O [Compound 3, (5S,8S,10aR)-N-benzhydryl-3-methyl-5-((S)-2-(methylamino)propanamido)-6-oxodeca-hydro pyrrolo[1,2-a][1,5]diazocine-8-carbox-amide]
times weaker than 2 in binding to cIAP-2 (cIAP-2): 2-3 times | times weaker than compound 2 in binding to XIAP BIR3 (XIAP BIR3): 4-17 times

CN[C@@H](C)C(=O)N[C@H]1CN(Cc2ccccc2)CC[C@H]2CC[C@@H](C(=O)NC(c3ccccc3)c3ccccc3)N2C1=O [Compound 4, (5S,8S,10aR)-N-benzhydryl-3-benzyl-5-((S)-2-(methylamino)propanamido)-6-oxodeca-hydropyrrolo[1,2-a][1,5]diazocine-8-carbox-amide]
times weaker than 2 in binding to cIAP-2 (cIAP-2): 2-3 times | times weaker than compound 2 in binding to XIAP BIR3 (XIAP BIR3): 4-17 times

CN[C@@H](C)C(=O)N[C@H]1CN(C(=O)Cc2ccccc2)CC[C@H]2CC[C@@H](C(=O)NC(c3ccccc3)c3ccccc3)N2C1=O [Compound 6, (5S,8S,10aR)-N-Benzhydryl-5-((S)-2-(methyl-amino)propanamido)-6-oxo-3-(2-phenyl-acetyl)decahydro pyrrolo[1,2-a][1,5]diazo-cine-8-carboxamide]
aqueous solubility (in words) (Aqueous solubility): excellent aqueous solubility | concentration that effectively induces apoptosis [1]: 100 nM | AUC(0-inf) (in vivo; 30 mg/kg): 1980 ± 614 ng·h/mL

Source: paper PMC2679375 (Journal of medicinal chemistry, 2008)
